The values that follow come from article PMC11396062, “The n-Butanol Extract Obtained from the Inner Bark of Tabebuia rosea (Bertol.) DC, Specioside, and Catalposide Induce Leukemia Cell Apoptosis in the Presence of Apicidin” (Molecules, 2024).

Converted amounts (≈) assume the structure as drawn.

Experiment [1] relates to THP-1 cells. Kind of experiment: Flow cytometric apoptosis, Annexin V-CF647/7-AAD. In kind it is cell-based, human. Conditions: THP-1, 24 h (Figure S5). How it is done:
In 96-well plates, 8 × 10^4 cells were treated with 25, 50, and 100 µg/mL extract and 400 µM doxorubicin (positive control) for 24 and 48 h. The cells were washed with 1X PBS, and apoptotic cells were detected by staining with 100 µL of Annexin V-CF647 and 5 µL of the 7-AAD Apoptosis Annexin Red Kit (FCCH100108 FlowCellect, Millipore, Darmstadt, Germany). The cells were incubated at room temperature for 15 min in the dark and analyzed on a Guava Millipore flow cytometer (Merck Millipore, Bedford, MA, USA) using InCyte software (version 3.1, Merck Millipore). The percentage of annexin V-positive cells was evaluated.

Experiment [2] deals with THP-1 cells. Briefly: Cell cycle analysis by flow cytometry. Type of experiment: cell-based, human. Conditions: THP-1 (Figure S6). How it is done: After treatment with the extract, 7 × 10^4 cells were harvested, washed with PBS, fixed with 200 µL of ice-cold 70% ethanol, and maintained at 4 °C for 4 h before staining. The cell pellet was washed in 1X PBS, resuspended in 200 µL of Guava Cell Cycle reagent (#4500-0220, Millipore), and incubated in the dark at 37 °C for 30 min before analysis with a Guava flow cytometer (Merck Millipore, Bedford, MA, USA) using InCyte software (version 3.1, Merck Millipore).. Centrifugation was performed at 1200 rpm for 5 min at room temperature for each step.

The subject of experiment [3] is Peripheral blood mononuclear cells (PBMCs). Kind of experiment: MTT cell viability assay, PBMC (normal cells). In kind it is cell-based. Conditions: Homo sapiens, n = 3. As to the method: Jurkat and THP-1 cell lines were purchased from the American Type Culture Collection (ATCC, Rockville, MD, USA); Jurkat is a human lymphocytic cell line representing acute T-cell leukemia, and THP-1 is a monocytic cell line that represents acute myelogenous leukemia (AML). Jurkat and THP-1 cells were maintained in RPMI 1640 medium (Sigma) supplemented with 10% heat-inactivated fetal bovine serum (FBS) (Gibco Cat No. 16140071, Waltham, MA USA), 200 μg/mL penicillin, 200 μg/mL streptomycin, 400 μg/mL neomycin (GIBCO, Cat No. 15640-055), 5 μg/mL amphotericin, and 1 mM sodium pyruvate (all from Sigma Chemical Co., Saint Louis, MO, USA; Cat Nos. A9528-50 MG, M7522-100ML, and S8636-100ML, respectively). The cells were maintained at 37 °C in a humidified atmosphere with 5% CO2. The culture medium was exchanged with fresh medium every 2–3 days. Peripheral blood mononuclear cells (PBMCs) were isolated from normal human venous blood. Further, 10 milliliters of human blood was mixed with 10 mL of RPMI-1640 containing 50 µL of heparin and gradually poured over 1 mL of HISTOPAQUE®-1119 (Sigma). The plasma was removed by centrifugation at 3000 rpm for 30 min. The peripheral blood mononuclear cell-containing layer was collected with a pipette and diluted in 4 mL of PBS. PBMCs were harvested by centrifugation at 1500 rpm for 10 min at room temperature, resuspended in RPMI-1640 with 10% FBS, and incubated at 37 °C in 5% CO2 humidified air.
Cell viability was determined by measuring the mitochondrial activity of live cells via the metabolism of the tetrazolium substrate 3-(4,5-dimethylthiazol-2-yl)-2,5-diphenyl tetrazolium bromide (MTT) and converting it to purple formazan crystals. Briefly, the cells (2 × 10^4 cells/well) were treated with 25, 50, 100, 200, or 400 μg/mL extract diluted in DMSO (at a final concentration of 0.5%) and incubated for 12, 24, or 48 h. Catalposide and specioside were tested at concentrations of 20, 50, and 100 μg/mL for 12, 24, and 48 h. For apicidin, 0.5, 1, and 2 μM apicidin were tested for 24 and 48 h. Doxorubicin was used as a reference standard drug (positive control). After treatment, the medium was discarded; 200 μL of RPMI 1640 medium without phenol red containing 0.5 mg/mL MTT (Sigma Chemical Co., Saint Louis, MO, USA; Cat. No. M2128-500MG) was then added to each well. The plates were incubated for four hours at 37 °C with 5% CO2 in a humidified atmosphere. The medium was discarded, and 100 μL of DMSO was added to solubilize the formazan crystals. The absorbance was measured with an ELISA microplate reader at 492 nm (ELx800; BioTek Instruments Inc., Winooski, VT, USA). The percentage of viable cells was calculated on the basis of the nontreated control (taken as 100%). The IC50 (concentration causing a 50% reduction in cellular viability) values for all the tested compounds were evaluated in Excel using the nonlinear regression curve method. Three independent assays were performed, each in triplicate.

In experiment [4] the test system is BAX. Briefly: RT-qPCR BAX mRNA expression. In kind it is cell-based, human. Conditions: THP-1, catalposide 44 and 66 μg/mL, specioside 20, 40 and 60 μg/mL. As to the method:
(§1) After treatment, mRNA extraction was performed using the RNeasy Plus Mini Kit (Qiagen, Germantown, MD, USA; Cat No. 74134). The mRNA was quantified with a NanoDrop 2000c (Thermo Fisher Scientific, Waltham, MA, USA). The expression of the MAPK14 (gene encoding p38), BCL2, and BAX genes was evaluated by qRT–PCR and quantified with the 2^−ΔΔCt method in the Applied Biosystems StepOnePlus Real-Time PCR System (Applied Biosystems, Foster City, CA, USA), which uses predesigned TaqMan Gene Expression Assays (codes […], Hs00608023_m1, and Hs00180269_m1, respectively) (Applied Biosystems, Foster City, CA, USA) and the TaqMan® RNA-to-CT TM 1-Step Kit (Applied Biosystems, Foster City, CA, USA, Cat No. 4392653). The reaction mixture was incubated at 48 °C for 15 min and 95 °C for 10 min and then cycled (40 cycles) at 95 °C for 15 s and 60 °C for 1 min. GAPDH was used as an endogenous control.
A general note: Quantitative PCR measures a nucleic acid by following its amplification.

Experiment [5] deals with BCL2. Kind of experiment: RT-qPCR BCL2 mRNA expression. Conditions: THP-1, catalposide 44 μg/mL, specioside 40 μg/mL. Type of experiment: cell-based, human. How it is done:
as §1

In general, IC50 refers to the concentration needed to halve the response being measured. With `O=C(O[C@H]1[C@@H]2C=CO[C@@H](O[C@@H]3O[C@H](CO)[C@@H](O)[C@H](O)[C@H]3O)[C@@H]2[C@@]2(CO)O[C@@H]12)c1ccc(O)cc1` [Catalposide, catalposide], the “apoptosis compared with control” value in experiment [1] is given as “increased apoptosis”. Further, the “percentage of cells in the G0/G1 phase compared with control” value in experiment [2] is on record as “the increase was significant”. In addition, the IC50 in experiment [3] (12 h) is 126 ± 2.8 µg/mL (≈ 260 µM); in experiment [3] (24 h), 87.7 ± 3.1 µg/mL (≈ 182 µM); in experiment [3] (48 h), 43.4 ± 3.4 µg/mL (≈ 90 µM). Further, the “expression of Bax mRNA with APC pretreatment” value in experiment [4] is recorded as “increased”. The “expression of Bcl-2 mRNA with APC” value in experiment [5] is reported as “decreased”.

In the case of `O=C(/C=C/c1ccc(O)cc1)O[C@H]1[C@@H]2C=CO[C@@H](O[C@@H]3O[C@H](CO)[C@@H](O)[C@H](O)[C@H]3O)[C@@H]2[C@@]2(CO)O[C@@H]12` [Specioside], the “apoptosis compared with control” value in experiment [1] was “increased apoptosis”. Further, in experiment [2], the “percentage of cells in the G0/G1 phase compared with control” value is reported as “the increase was significant”. Moreover, the IC50 was 165 ± 3.1 µg/mL (≈ 325 µM) in experiment [3] (12 h), 70.7 ± 3.7 µg/mL (≈ 139 µM) in experiment [3] (24 h) and 54.2 ± 3.7 µg/mL (≈ 107 µM) in experiment [3] (48 h). For the same compound, the “expression of Bax mRNA with APC pretreatment” value in experiment [4] is recorded as “increased”. Further, the “expression of Bcl-2 mRNA with APC” value in experiment [5] is listed as “decreased”.
